From ChEMBL document CHEMBL1135095, “3-D QSAR studies on new dibenzyltin(IV) anticancer agents by comparative molecular field analysis (CoMFA)” (Bioorg Med Chem Lett, 2002) come the findings set out here.

The species named for one data set is Mus musculus. Kind of data set: Lethal dose in swiss albino mice by peroral route. In kind it is toxicity, organism-based. The settings on record: in vivo, po.
The next data set relates to WiDr. Kind of data set: In vitro antitumor activity against WIDR human cancer cell line. In kind it is functional, cell-based.
Another data set deals with IGROV-1. Kind of data set: In vitro antitumor activity against IGROV human cancer cell line. Type of data set: functional, cell-based.
The next data set has as its system SK-MEL19. Kind of data set: In vitro antitumor activity against MEL 19 human cancer cell line. Type of data set: functional, cell-based.

Usually LD50 stands for the dose expected to kill half of the subjects tested. Read a low LD50 as a more toxic substance. In the data set filed under Mus musculus, CARBOPLATIN [listing 1 of 2 here] registered a 50% lethal dose (LD50) of 150 mg/kg.

Consider CISPLATIN [listing 1 of 2 here], for which the LD50 in the data set listed under Mus musculus came to 31 mg/kg.

In the case of CARBOPLATIN [listing 2 of 2 here], the ID50 turned out to be 943 µM in the data set on WiDr, 646 µM with IGROV-1 and 1480 µM with SK-MEL19.

On to CISPLATIN [listing 2 of 2 here], for which the ID50 with WiDr amounted to 450 µM; with IGROV-1 it was 75 µM; in the data set with SK-MEL19, 260 µM.
